Experimental data reported in patent US20080255206A1, “Rxr Agonists and Antagonists, Alone or in Combination with Ppar Ligands, in the Treatment of Metabolic and Cardiovascular Diseases” (priority 2005, published 2008).

Columns and labels:
[1] = molecular target: T1, RXRα Homodimer (Homo sapiens, UniProt P19793); assay: RXRα homodimer activation (transactivation) assay; assay type: cell-based
T1 construct: expressed in transfected cells; host or cells: mammalian cells (BHK21, CV1, etc)
T1 sequence (P19793 1-462): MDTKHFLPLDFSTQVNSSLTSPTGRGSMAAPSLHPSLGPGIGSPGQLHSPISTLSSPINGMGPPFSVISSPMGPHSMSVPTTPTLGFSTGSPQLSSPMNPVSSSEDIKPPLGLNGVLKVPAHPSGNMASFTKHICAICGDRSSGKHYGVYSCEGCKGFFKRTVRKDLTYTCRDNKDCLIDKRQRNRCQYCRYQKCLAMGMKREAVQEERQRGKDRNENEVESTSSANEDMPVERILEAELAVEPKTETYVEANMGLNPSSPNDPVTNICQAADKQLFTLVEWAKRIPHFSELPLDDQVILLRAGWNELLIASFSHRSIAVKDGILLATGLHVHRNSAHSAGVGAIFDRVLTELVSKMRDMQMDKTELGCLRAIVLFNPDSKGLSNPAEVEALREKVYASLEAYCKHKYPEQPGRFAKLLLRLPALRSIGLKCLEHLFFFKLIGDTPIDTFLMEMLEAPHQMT
Excerpt: (§1) Nuclear hormone receptor (NHR) ligand dependent transcriptional transactivation assay.
This secondary in vitro functional assay to characterize hits from the primary ligand binding screens is a GAL4-LBD transactivation assay. The Gal4-LBD protein consists of an in frame fusion of the transcription factor galactose 4 DNA binding domain from S.cerevisiae with the ligand binding domain (LBD) of a particular NHR. Briefly, a plasmid construct expressing the recombinant chimeric receptor is co-transfected into mammalian cells (BHK21, CV1, etc) with a luciferase reporter plasmid containing several copies in tandem of the GAL4 binding sites (promoter recognition elements) upstream from the minimal promoter driving the luciferase gene. The transfected cells are treated with compounds for 12-24 hours, lysates are produced and assayed for luciferase activity and normalized to internal standards such as GH, growth hormone or SEAP, secreted alkaline phosphatase. Ligand binding stabilizes the LBD conformation that recruits endogenous co-factors that mediate eventually the increased transcriptional activity of the luciferase reporter gene. By comparing the activation profile of a reference ligand or a natural ligand, the EC50 values for agonistic activity of a particular ligand can be measured. The extent of activation that can be measured is indicative of a partial, respectively full agonistic activity of a ligand. […]

[2] = molecular target: T2, RARα (Homo sapiens, UniProt P10276); assay: Retinoid binding assay, RARα; parameters: The DEF domains of RAR's and the full length RXR's, expressed in E.coli; made in house; host or cells: E. coli; details: read-out: Binding Affinity IC50 RAR α
T2 sequence (P10276 183-417 limits assumed): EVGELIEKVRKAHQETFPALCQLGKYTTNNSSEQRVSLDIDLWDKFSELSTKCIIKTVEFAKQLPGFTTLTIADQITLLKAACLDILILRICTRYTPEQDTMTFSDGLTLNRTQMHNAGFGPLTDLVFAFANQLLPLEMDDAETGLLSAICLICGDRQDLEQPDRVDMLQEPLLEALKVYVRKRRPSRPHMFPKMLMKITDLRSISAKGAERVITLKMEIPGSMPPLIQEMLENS
Excerpt: The DEF domains of RAR's and the full length RXR's, expressed in E.coli, are used to measure competitive retinoid binding. […] 9-cis retinoic acid (for RXR's), respectively. […] Separation of bound from free radioactivity is achieved by charcoal/dextran (RAR's) or by desalting columns (RXR's). […] Retinoid Activation Assays

[3] = molecular target: T3, RXRγ (Homo sapiens, UniProt P48443); assay: Retinoid activation assay, RXRγ (Schneider SL-3 cells, luciferase reporter); assay type: cell-based; details: read-out: Activation EC50 RXR γ
T3 sequence (P48443 1-463): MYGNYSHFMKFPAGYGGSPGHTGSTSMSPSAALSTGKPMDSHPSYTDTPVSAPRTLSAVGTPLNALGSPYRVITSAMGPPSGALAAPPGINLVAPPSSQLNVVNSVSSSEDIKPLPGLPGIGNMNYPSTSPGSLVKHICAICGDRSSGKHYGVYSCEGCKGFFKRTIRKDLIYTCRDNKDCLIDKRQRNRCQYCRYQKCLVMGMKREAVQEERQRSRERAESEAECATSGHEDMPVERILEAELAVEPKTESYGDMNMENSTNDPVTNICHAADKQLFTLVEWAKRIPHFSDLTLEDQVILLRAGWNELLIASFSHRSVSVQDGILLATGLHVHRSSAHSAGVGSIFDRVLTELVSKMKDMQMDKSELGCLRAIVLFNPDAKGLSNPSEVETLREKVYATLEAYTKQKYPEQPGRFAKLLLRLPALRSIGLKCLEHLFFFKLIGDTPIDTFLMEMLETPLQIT
Description: Full length RXR cDNA is used for transfection. As reporter system, the luciferase gene is used in a construct with three copies of a RXR response element from rat CRBP gene, (formerly RARE from betaRAR gene), fused to alcoholdehydrogenase gene promoter in the plasmid pGL2-basic. Schneider SL-3 cells from Drosophila are transiently transfected 3-4 h before the experiment by the Ca-phosphate-DNA coprecipitation method. […] At the end of the incubation, the cell supernatants are assayed for luciferase activity. Results are given as EC50 (nM), the concentration leading to half-maximal activation.

[4] = molecular target: T4, PPARγ/RXRα Heterodimer (Homo sapiens, UniProt P19793); assay: PPARγ/RXRα heterodimer activation (transactivation) assay; assay type: cell-based
T4 construct: co-transfected with plasmids expressing the full length RXR heteropartner receptor; expressed in transfected cells
T4 sequence (P19793 1-462): T1 sequence (P19793 1-462)
T4 sequence (P37231 1-505 partner): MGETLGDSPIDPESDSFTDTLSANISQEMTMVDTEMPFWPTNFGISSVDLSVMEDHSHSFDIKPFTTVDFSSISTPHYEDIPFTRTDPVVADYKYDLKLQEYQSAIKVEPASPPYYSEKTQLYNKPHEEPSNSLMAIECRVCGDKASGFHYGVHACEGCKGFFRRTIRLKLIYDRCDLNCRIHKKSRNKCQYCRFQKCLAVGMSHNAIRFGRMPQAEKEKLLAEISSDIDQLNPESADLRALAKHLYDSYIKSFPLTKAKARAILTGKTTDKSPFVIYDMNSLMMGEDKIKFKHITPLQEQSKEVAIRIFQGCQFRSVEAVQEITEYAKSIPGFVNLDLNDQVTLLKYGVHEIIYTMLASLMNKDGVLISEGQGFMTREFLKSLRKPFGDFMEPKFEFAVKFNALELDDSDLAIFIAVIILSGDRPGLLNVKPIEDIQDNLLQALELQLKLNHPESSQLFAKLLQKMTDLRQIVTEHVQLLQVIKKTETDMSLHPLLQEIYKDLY
Excerpt: as §1
Heterodimer reporter assays are potentially more important selection criteria for synthetic agonistic NHR ligands as they embody a more natural situation. Basically plasmids expressing the recombinant full length NHR are co-transfected with plasmids expressing the full length RXR heteropartner receptor and a reporter plasmid containing several copies of the natural responsive elements for the respective NHR driving the luciferase reporter gene.

| SMILES | EC50 [1] [nM] | IC50 [2] [nM] | EC50 [3] [nM] | EC50 [4] [nM] |
| --- | --- | --- | --- | --- |
| CC(/C=C/[C@@H]1C[C@@H]1c1ccc2c(c1)C(C)(C)CCC2(C)C)=C\C(=O)O (racemic) [Compound 4, (2E,4E)-3-methyl-5-[(1RS,2RS)-2-(5,5,8,8-tetramethyl-5,6,7,8-tetrahydro-naphthalen-2-yl)-cyclopropyl]-penta-2,4-dienoic acid] | 3.5 | > 10000 | 50 | – |
| CCCCOc1c([C@@H]2C[C@@H]2/C=C/C(C)=C/C(=O)O)cc(C(C)(C)C)cc1C(C)(C)C (racemic) [Compound 16, (2E,4E)-(1RS,2RS)-5-[2-(3,5-Di-tert-butyl-2-butoxy-phenyl)-cyclopropyl]-3-methyl-penta-2,4-dienoic acid] | > 10000 | > 10000 | ≥ 10000 | > 10000 |
| CCOc1c([C@@H]2C[C@@H]2/C=C/C(C)=C/C(=O)O)cc(C(C)(C)C)cc1C(C)(C)C (racemic) [Compound 17, (2E,4E)-(1RS,2RS)-5-[2-(3,5-Di-tert-butyl-2-ethoxy-phenyl)-cyclopropyl]-3-methyl-penta-2,4-dienoic acid] | > 10000 | > 10000 | ≥ 10000 | > 10000 |
| CC1=C(/C=C/C2=C(/C=C/C(C)=C/C(=O)O)CCCCC2)C(C)(C)CCC1 [Compound 1, (2E,4E)-3-methyl-5-[2-[(E)-2-(2,6,6-trimethyl-1-cyclohexen-1-yl)ethenyl]-1-cyclohepten-1-yl]-2,4-pentadienoic acid] | 1.4 | > 10000 | ≥ 10000 | 70 |
| CC1=C(/C=C/c2sccc2/C=C/C(C)=C/C(=O)O)C(C)(C)CCC1 [Compound 5, (2E,4E)-3-Methyl-5-[2-[(E)-2-(2,6,6-trimethyl-1-cyclohexen-1-yl)ethenyl]-3-thienyl]-2,4-pentadienoic acid] | 0.8 | 1600 | ≥ 10000 | 1.5 |
| CC(/C=C/C1=C(c2ccc3c(c2)C(C)(C)CCC3(C)C)CCCC1)=C\C(=O)O [Compound 6, (2E,4E)-3-Methyl-5-[2-(5,5,8,8-tetramethyl-5,6,7,8-tetrahydro-naphthalen-2-yl)-cyclohex-1-enyl]-penta-2,4-dienoic acid] | 19 | > 10000 | 140 | – |
| CC(/C=C/c1ccccc1-c1ccc2c(c1)C(C)(C)CCC2(C)C)=C\C(=O)O [Compound 7, (2E,4E)-3-methyl-5-[2-(5,5,8,8-tetramethyl-5,6,7,8-tetrahydro-naphthalen-2-yl)-phenyl]-penta-2,4-dienoic acid] | 6 | > 10000 | 400 | – |
| CC(/C=C/c1sccc1-c1ccc2c(c1)C(C)(C)CCC2(C)C)=C\C(=O)O [Compound 9] | 2.5 | 3400 | 90 | 38 |
| CC(/C=C/C1=C(c2ccc3c(c2)C(C)(C)CCC3(C)C)CCC1)=C\C(=O)O [Compound 12, (2E,4E)-3-Methyl-5-[2-(5,5,8,8-tetramethyl-5,6,7,8-tetrahydro-naphthalen-2-yl)-cyclopent-1-enyl]-penta-2,4-dienoic acid] | 9 | 3500 | 150 | 7.7 |
| C/C(=C/C=C/C(C)=C/C(=O)O)c1cc2c(cc1C)C(C)(C)CCCC2 [Compound 13, (2E,4E,6Z)-3-Methyl-7-(3,5,5,-trimethyl-6,7,8,9-tetrahydro-5H-benzocyclohepten-2-yl)-octa-2,4,6-trienoic acid] | 1.5 | 6500 | 400 | 23 |
| CC1=C(/C=C/C2=C(/C=C/C(C)=C/C(=O)O)CCC2)C(C)(C)CCC1 [Compound 14, (2E,4E)-3-Methyl-5-[2-[(E)-2-(2,6,6-trimethyl-1-cyclohexen-1-yl)ethenyl]-1-cyclopenten-1-yl]-2,4-pentadienoic acid] | 6 | – | 50 | 7 |
| CCCCOc1c(\C(C)=C/C=C/C(C)=C/C(=O)O)cc(C(C)(C)C)cc1C(C)(C)C [Compound 15, (2E,4E,6Z)-7-[2-butoxy-3,5-bis(1,1-dimethylethyl)phenyl]-3-methyl-2,4,6-octatrienoic acid] | > 10000 | 4200 | ≥ 10000 | > 10000 |
| CC1=C(C#CC2=C(/C=C/C(C)=C/C(=O)O)CCCCC2)C(C)(C)CCC1 [Compound 18] | > 10000 | > 10000 | ≥ 10000 | > 10000 |
| CCOc1c(\C(C)=C/C=C/C(C)=C/C(=O)O)cc(C(C)(C)C)cc1C(C)(C)C [Compound 21, (2E,4E,6Z)-7-[3,5-Bis(1,1-dimethylethyl)-2-ethoxyphenyl]-3-methyl-2,4,6-octatrienoic acid/ethyl ester] | > 10000 | > 10000 | ≥ 10000 | 1.25 |
| CCC1(CC)CCC(C)(C)c2cc(\C(C)=C/C=C/C(C)=C/C(=O)O)ccc21 [Compound 24, (2E,4E,6Z)-7-(5,5-Diethyl-8,8-dimethyl-5,6,7,8-tetrahydro-naphthalen-2-yl)-3-methyl-octa-2,4,6-trienoic acid] | > 10000 | 46 | ≥ 10000 | 3.5 |
